US6583274B1, “Crystalline forms of macrolide antibiotic” (Pfizer Inc., priority 1999, dated 2003)

Legend:
[1] = hygroscopicity measurement (weight vs relative humidity on storage); type: physicochemical; conditions: for hygroscopicity: about 87% relative humidity, ambient temperature
Method: FIG. 3: Weight (Pct) - Relative humidity (Pct).
As used herein, the term “non-hygroscopic” when used to describe a composition of matter means that the composition of matter absorbs moisture at a rate of less than about 0.4% over 24 hours at 90% relative humidity.
A particular advantage conferred by this form is its lack of hygroscopicity.
(§1) From this and other data, it has been determined that crystalline anhydrous CP-472,295 is non-hygroscopic at about 87% relative humidity for about 72 hours at ambient temperature. This unexpected property allows the low-cost, efficient handling and storage of the drug, and the facile incorporation of accurate amounts of the drug into a variety of dosage forms.
as §1, with “Crystalline CP-472,295 monohydrate, like the crystalline anhydrous form described above, is advantageously non-hygroscopic. […] From” for “From”, “crystalline” for “crystalline anhydrous”, “CP-472,295 monohydrate” for “CP-472,295”, “7 days” for “72 hours”
By contrast, the pseudomorph formed when the monohydrate loses water is hygroscopic, and reabsorbs the water of hydration within about 4 hours when stored at about 87% relative humidity at ambient temperature.

[2] = water loss under routine handling conditions; type: physicochemical; conditions: routine handling conditions (e.g., 25° C. and 70% relative humidity)

In the case of `CCCNC[C@]1(O)[C@H](C)O[C@@H](O[C@H]2[C@H](C)[C@@H](O[C@@H]3O[C@H](C)C[C@H](N(C)C)[C@H]3O)[C@@](C)(O)C[C@@H](C)CN[C@H](C)[C@@H](O)[C@](C)(O)[C@@H](CC)OC(=O)[C@@H]2C)C[C@@]1(C)OC` [crystalline CP-472,295 monohydrate], the hygroscopicity ([1]; about 7 days) is reported as “non-hygroscopic (absorbs moisture at a rate of less than about 0.4% over 24 hours at 90% relative humidity)”.

For `CCCNC[C@]1(O)[C@H](C)O[C@@H](O[C@H]2[C@H](C)[C@@H](O[C@@H]3O[C@H](C)C[C@H](N(C)C)[C@H]3O)[C@@](C)(O)C[C@@H](C)CN[C@H](C)[C@@H](O)[C@](C)(O)[C@@H](CC)OC(=O)[C@@H]2C)C[C@@]1(C)OC` [crystalline CP-472,295 sesquahydrate], the “loss of water (stability of hydrate)” value [2] was “readily loses water”.

With `CCCNC[C@]1(O)[C@H](C)O[C@@H](O[C@H]2[C@H](C)[C@@H](O[C@@H]3O[C@H](C)C[C@H](N(C)C)[C@H]3O)[C@@](C)(O)C[C@@H](C)CN[C@H](C)[C@@H](O)[C@](C)(O)[C@@H](CC)OC(=O)[C@@H]2C)C[C@@]1(C)OC` [crystalline anhydrous CP-472,295] the hygroscopicity ([1]; about 72 hours) was “non-hygroscopic (absorbs moisture at a rate of less than about 0.4% over 24 hours at 90% relative humidity)”.

For `CCCNC[C@]1(O)[C@H](C)O[C@@H](O[C@H]2[C@H](C)[C@@H](O[C@@H]3O[C@H](C)C[C@H](N(C)C)[C@H]3O)[C@@](C)(O)C[C@@H](C)CN[C@H](C)[C@@H](O)[C@](C)(O)[C@@H](CC)OC(=O)[C@@H]2C)C[C@@]1(C)OC` [pseudomorph], the hygroscopicity ([1]; pseudomorph formed when the monohydrate loses water) was “hygroscopic” and the “time to reabsorb the water of hydration” value ([1]; stored at about 87% relative humidity at ambient temperature) was at most 4 h.
